The test system of assay [1] is HL-60 cells. The experiment in a line: Labeling of CPT-treated HL-60 cells with FLISP (FFCK, FLCK) and FLICA (FAM-VAD-FMK, SR-VAD-FMK) reagents, by LSC or fluorescence microscopy. The class given is cell-based, Human. The conditions noted are these: for binding of the ligand by cells treated with CPT vs untreated (control) cells: HL-60, 3 h CPT, combined with PI; for fluorescence of labeled cells (appearance): dual labeling with SR-VAD-FMK, CPT-treated HL-60, microscopy/LSC imaging. The procedure: (§1) Preparation of reagents: Fluorescent inhibitors of serine proteases (FLISP) reagents, 5(6)-Carboxyfluoresceinyl-L-phenylalanylchloromethyl ketone (FFCK) and 5(6)-carboxyfluoresceinyl-L-leucylchloromethyl ketone (FLCK) were dissolved initially in dimethyl sulfoxide (DMSO; Sigma) to yield a 10 mM concentration. Aliquots were made from this stock solution and stored frozen at −20° C. protected from light. This reagent stock was then diluted directly into the cell culture media to give a 1× working reagent concentration of 10 μM. Dilution of the reagent into aqueous (cell culture) media is done just prior to cell exposure to preserve the labile chloromethyl ketone reactivity of FLISP reagent.
Fluorescent inhibitors of caspases (FLICA) reagents, namely the fluorescein labeled VAD-FMK (FAM-VAD-FMK) and sulforhodamine labeled VAD-FMK (SR-VAD-FMK) (Immunochemistry Technologies; Bloomington, Minn.) were both designed to detect the presence of active caspases within apoptotic cells. These inhibitors were dissolved in DMSO to obtain a 150× concentrated stock solution. Aliquots of these solutions were stored at −20° C. in the dark. Prior to use, a 30× working solution of either FAM-VAD-FMK or SR-VAD-FMK was prepared by diluting the stock solution 1:5 in phosphate buffered saline (PBS) and mixing until the solution become clear. The 30× working solution was diluted 1:30 cell culture media to give a final 1× working reagent concentration of 10 μM.
Cells: Human promyelocytic leukemic HL-60 cells were obtained from American Type Culture Collection (ATCC; Rockville, Md.). They were cultured in 25 mL FALCON flasks (Becton Dickinson Co., Franklin Lakes, N.J.) using RPMI 1640 supplemented with 10% fetal calf serum, 100 units/mL penicillin, […] and 2 mM L-glutamine (all from Gibco/BRL Life Technologies, Inc., Grand Island, N.Y.) in a humidified incubator set to maintain 37.5° C. and 5% CO2 as previously described (Bedner et al., Exp Cell Res., 2000, 259:308-313; Smolewski et al., Cytometry, 2001, 44:73-82). At the onset of experiments, there were fewer than 5×10^5 cells/ml in culture. To induce apoptosis the cells were treated with 0.15 μM DNA topoisomerase I inhibitor camptothecin (CPT; Sigma Chemical Co., St. Louis, Mo.) for 3 hours.
Cell staining and fluorescence measurement by LSC: The HL-60 cells from the untreated or CPT treated cultures were centrifuged (200 g, 5 min) and resuspended in PBS at approximately 10^4 cells per 5 mL volume. Cells were then attached electrostatically to microscope slides as described before (Bedner et al., Exp Cell Res., 2000, 259:308-313; Smolewski et al., Cytometry, 2001, 44:73-82). The attachment was achieved by the incubation (15 min) of cells suspended in serum-free PBS in shallow (<1 mm depth; 1.5×1.5 cm) wells on horizontally placed microscope slides that were rinsed in 100% ethanol and air dried prior to use, at 100% humidity. The electrostatically attached cells remain viable, exclude such dyes as trypan blue and propidium iodide (PI), and have unchanged morphology for several hours (Bedner et al., Exp Cell Res., 2000, 259:308-313). After the cells became attached, PBS was removed from the wells and was replaced by 150 μL of the culture medium containing 10% FCS. FLISP staining solutions were prepared by diluting 5 μL of the 10 mM FFCK or FLCK stock solution into 5 mL of culture medium yielding a final FLISP concentration 10 μM. […]

Assay [2] concerns HL-60 cells. Nature of the assay: Pretreatment of HL-60 cells with unlabeled protease inhibitors during CPT induction of apoptosis; subsequent binding of FAM-VAD-FMK, FFCK or FLCK measured by LSC. The class given is cell-based, Human. The settings on record: HL-60, 0.15 μM CPT 3 h, pretreatment with unlabeled inhibitor (Z-VAD-FMK 50 μM); probe 10 μM; mean ± SE of three experiments. How it is done: as §1
Fluorescent inhibitors of caspases (FLICA) reagents, namely the fluorescein labeled VAD-FMK (FAM-VAD-FMK) and sulforhodamine labeled VAD-FMK (SR-VAD-FMK) (Immunochemistry Technologies; Bloomington, Minn.) were both designed to detect the presence of active caspases within apoptotic cells. These inhibitors were dissolved in DMSO to obtain a 150× concentrated stock solution. Aliquots of these solutions were stored at −20° C. in the dark. […]
Cell staining and fluorescence measurement by LSC: The HL-60 cells from the untreated or CPT treated cultures were centrifuged (200 g, 5 min) and resuspended in PBS at approximately 10^4 cells per 5 mL volume. […]

Where “and” joins values, the source holds several entries; their conditions need not be identical. Equal values may be shown once.

Turning to “5(6)-Carboxyfluoresceinyl-L-phenylalanylchloromethyl ketone [FFCK]”, in the assay on HL-60 cells [1], the “binding of the ligand by cells treated with CPT vs untreated (control) cells” value is listed as “induced binding” and the “fluorescence of labeled cells (appearance)” value is reported as “strong”.

For “5(6)-Carboxyfluorescyl-L-leucylchloromethyl ketone [FLCK]”, in the assay on HL-60 cells [1], the “binding of the ligand by cells treated with CPT vs untreated (control) cells” value is on record as “induced binding” and the “fluorescence of labeled cells (appearance)” value was “faint”. Besides, the “greater fluorescence intensity of FLCK labeled cells compared to cells labeled with FFCK” value with HL-60 cells [1] (identical settings of photomultiplier sensitivity) is “approximately 60%”.

Consider “N-tosyl-L-phenylalanine chloromethyl ketone [TPCK]”, for which, in the assay with HL-60 cells [2], the “percent decrease in frequency of FLCK labeled cells vs cells treated with CPT without unlabeled inhibitor” value is 38.9% and 38.9 ± 1.7%.

These data come from patent publication US20050136492A1, “Affinity labeling of enzymes for detection of enzyme activity level in living cells” (priority 2001, published 2005).
